Laboratory results: PubChem BioAssay AID720727 (Broad Institute, 2013)
Calls of active or inactive are those of the source.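 How the source made its calls: active means compound whose rising-signal curve crosses activity 40 at or below its top valid dose; inconclusive means flat curve holding activity 30 to 70, or poor fit; inactive means the rest.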

tested on: Huh7 miR-21 level, qRT-PCR, 48 h; assay: miR-21 fold change in Huh7 hepatoma cells – cell-based, qRT-PCR, dry powder, selectivity assay for miR-122 activator project, dose response (AID 720727)

Q: With `C[C@H]1CN([C@@H](C)CO)C(=O)c2cc(-c3ccc(C#N)cc3)cnc2O[C@H]1CN(C)C(=O)c1ccccc1` as the compound, how does the AC40 read?
A: Its AC40 is 30.6 µM.

Q: `CN(C)CCCOc1nn(Cc2ccccc2)c2ccccc12` was tested. Which AC40 did it give?
A: Its AC40 is 11.4 µM.

Q: With `CN(CC(=O)Nc1cccc(Cl)c1)S(=O)(=O)c1ccc2c(c1)n(C)c(=O)c(=O)n2C` as the compound, how does the AC40 read?
A: Its AC40 is 29.8 µM.

Q: With `COc1ccc(S(=O)(=O)N(C)C[C@@H]2Oc3ncc(/C=C/c4ccccc4)cc3C(=O)N([C@@H](C)CO)C[C@@H]2C)cc1` as the compound, how does the AC40 read?
A: Its AC40 is 14.9 µM.

Q: `Cc1cc(C(C)(C)C)cc(S(=O)(=O)NCCc2ccncc2)c1C` was tested. Which AC40 did it give?
A: The AC40 was 33.5 µM.

Q: With `CN1C(=O)c2cc(NC(=O)c3cccc(F)c3)ccc2OC[C@H]2O[C@@H](CC(=O)O)CC[C@H]21` as the compound, how does the AC40 read?
A: The AC40 was 11.7 µM.

Q: How did the AC40 turn out when `CCOC(=O)N1CCC(NC(=O)c2ccc3c(c2)sc2nc(-c4ccccc4)cn23)CC1` was run?
A: Its AC40 is 17.5 µM.

Q: How did the AC40 turn out when `CCn1cc(C(=O)O)c(=O)c2cc(F)c(N3CCNCC3)nc21` was run?
A: Its AC40 is > 35 µM (inactive).

Q: With `Cc1cccc(NC(=O)Nc2ccc3c(c2)C(=O)N(C)[C@@H]2CC[C@H](CC(=O)NCc4ccccc4Cl)O[C@H]2CO3)c1` as the compound, how does the AC40 read?
A: The AC40 was 17.9 µM.

Q: For `COCC(=O)N(C)C[C@@H]1Oc2ncc(-c3ccc(C#N)cc3)cc2C(=O)N([C@@H](C)CO)C[C@@H]1C`, which AC40 is on record?
A: The AC40 was 18.4 µM.

Q: For `COCC(=O)N(C)C[C@H]1Oc2cc(-c3ccccc3F)ccc2S(=O)(=O)N([C@H](C)CO)C[C@H]1C`, which AC40 is on record?
A: The AC40 was 18.8 µM.

Q: Which AC40 does the source give for `CN1C(=O)c2cc(NC(=O)c3cccc(F)c3)ccc2OC[C@H]2O[C@@H](CC(=O)O)CC[C@@H]21` here?
A: Its AC40 is 32.5 µM.

Q: How did the AC40 turn out when `COCC(=O)N(C)C[C@H]1Oc2cc(C#Cc3cccnc3)ccc2S(=O)(=O)N([C@H](C)CO)C[C@H]1C` was run?
A: Its AC40 is 4.22 µM.

Q: `O=C(CN=C1NS(=O)(=O)c2ccccc21)Nc1ccccc1N1CCCCCC1` was tested. Which AC40 did it give?
A: Its AC40 is 28.4 µM.

Q: How did the AC40 turn out when `CNC[C@@H]1Oc2cc(C#CC3CCCCC3)ccc2S(=O)(=O)N([C@@H](C)CO)C[C@@H]1C` was run?
A: Its AC40 is 29.2 µM.
